# Data: US10064840B2, “Pharmaceutical composition for the treatment of multi-drug resistant infections” (priority 2014, dated 2018)
# Where two headings read alike, the source gives them in different places.
# Columns and labels:
# Assay type in all cases: cell-based
# [1] = tested on: Staphylococcus aureus 1199B (Nor A overexpressing); test: Nor A efflux pump inhibition, broth checkerboard combination with ciprofloxacin; conditions: for MEC4 (minimum effective concentration of compound that brings about 4 fold reduction in the MIC of Ciprofloxacin): in combination with ciprofloxacin
# Method: Combination studies were performed by a broth checkerboard method A series of twofold dilutions of test ciprofloxacin in Muller Hinton Broth (pH 7.0) was tested in combination with twofold dilutions of boeravinone B in 96-well microtiter plates. The final concentrations of ciprofloxacin ranged from 0.03 mg/L/ml to 64 mg/L and for boeravinone B from 0.8 mg/L to 50 mg/L. Piperine at a same concentration range as that of boeravinone B was used as standard EPI. Nor A overexpressing derivative of a clinical isolate (SA-1199B) obtained from S. aureus strain ATCC No. 29213 (American Type Culture Collection Manassas, Va., USA) was kindly gifted by Dr G. W. Kaatz (Wayne State University School of Medicine, Detroit, Mich., USA). Bacterial inocula were prepared by adjusting the inoculum density of the overnight grown Staphylococcus aureus 1199B (Nor A overexpressing) to 0.5 McFarland (˜1.5×10^8 CFU/mL of Escherichia coli). These inocula were diluted 1:100 in sterile normal saline and 100 μl of these diluted inocula was dispensed in each well. The final bacterial inoculum reached in each well was equal 5×10^5 CFU/mL. The plates were incubated at 37° C. for 24 hrs. The MIC was read visually as the lowest concentration of ciprofloxacin inhibiting the growth of bacteria as evident from the absence of turbidity.
# [2] = tested on: Staphylococcus aureus SA-K2191 (Msr A overexpressing); test: Msr A efflux pump inhibition, broth checkerboard combination with erythromycin
# Method: Combination studies were performed by a broth checkerboard method. A series of two-fold dilutions of test Erythromycin in Muller Hinton Broth (pH 7.0) was tested in combination with twofold dilutions of boeravinone B in 96-well microtiter plates. The final concentrations of erythromycin ranged from 0.03 mg/L/ml to 64 mg/L and for boeravinone B from 0.8 mg/L to 50 mg/L. MsrA overexpressing S. aureus derivative (RN4220) obtained by transforming with pSK265 into which the gene for MsrA has been cloned from S. aureus ATCC 29213 (American type culture collection Manassas, Va., USA) was kindly gifted by Dr G. W. Kaatz (Wayne State University School of Medicine, Detroit, Mich., USA). Bacterial inocula were prepared by adjusting the inoculum density of the overnight grown Staphylococcus aureus SA-K2191 (Msr A overexpressing) to 0.5 McFarland (˜1.5×10^8 CFU/mL of Escherichia coli). These inocula were diluted 1:100 in sterile normal saline and 100 μl of these diluted inocula was dispensed in each well. The final bacterial inoculum reached in each well was equal 5×10^5 CFU/mL. The plates were incubated at 37° C. for 24 hrs. The MIC was read visually as the lowest concentration of erythromycin inhibiting the growth of bacteria as evident from the absence of turbidity. […]
# [3] = tested on: Staphylococcus aureus Mupr-1 (Mde A overexpressing); test: Mde A efflux pump inhibition, broth checkerboard combination with mupirocin; conditions: for MIC: Staphylococcus aureus
# Method: Staphylococcus aureus Mupr-1 (Mde A overexpressing) was prepared in-house from SA-1199-Wild type clinical isolate which was gifted by Prof. Dr G. W. Kaatz (Wayne State University School of Medicine, Detroit, Mich., USA) by serially passaging SA-1199 strain on mupirocin. Combination studies were performed by a broth checkerboard method. A series of twofold dilutions of test mupirocin in Muller Hinton Broth (pH 7.0) was tested in combination with twofold dilutions of boeravinone B in 96-well microtiter plates. The final concentrations of mupirocin ranged from 0.03 mg/L/ml to 64 mg/L and for boeravinone B from 0.8 mg/L to 50 mg/L. Bacterial inocula were prepared by adjusting the inoculum density of the overnight grown Staphylococcus aureus Mup^r-1 (Mde A overexpressing) to 0.5 McFarland (˜1.5×10^8 CFU/mL of Escherichia coli). Mde A overexpressing derivative S. aureus strain was prepared in lab upon mupirocin treatment (Mup^r-1) from S. aureus strain ATCC No. 29213 (American type culture collection Manassas, Va., USA). These inocula were diluted 1:100 in sterile normal saline and 100 μl of these diluted inocula was dispensed in each well. The final bacterial inoculum reached in each well was equal 5×10^5 CFU/mL. The plates were incubated at 37° C. for 24 hrs. The MIC was read visually as the lowest concentration of mupirocin inhibiting the growth of bacteria as evident from the absence of turbidity. […]
# [4] = at 25 μM concentration of boeravinone B
smiles,measurement,setting,value
"O=C(O)c1cn(C2CC2)c2cc(N3CCNCC3)c(F)cc2c1=O [Ciprofloxacin, ciprofloxacin, reference compound]",MIC,"[1]; Staphylococcus aureus, 24 h, read-out: MIC Ciprofloxacin Alone",8 µg/mL
"CC[C@H]1OC(=O)[C@H](C)[C@@H](O[C@H]2C[C@@](C)(OC)[C@@H](O)[C@H](C)O2)[C@H](C)[C@@H](O[C@@H]2O[C@H](C)C[C@H](N(C)C)[C@H]2O)[C@](C)(O)C[C@@H](C)C(=O)[C@H](C)[C@@H](O)[C@]1(C)O [Erythromycin, erythromycin, reference compound]",MIC,"[2]; Staphylococcus aureus, 24 h, read-out: MIC of Erythromycin Alone",64 µg/mL
"Cc1c(O)cc2oc3c(c(=O)c2c1O)-c1ccccc1OC3O (centres unmarked) [Boeravinone B, 6,9,11-trihydroxy-10-methyl[1]benzopyrano[3,4-b][1]benzopyran-12(6H)-one]",reduction of MIC of erythromycin,[2]; [4],4 folds
same,enhancement in antibacterial activity of erythromycin,"[2]; combination with erythromycin, MDR S. aureus, concentration not given",4 folds
same,MIC of Erythromycin in presence of compound,[2]; compound concentration 0.7 μM,64 µg/mL
same,MIC of Erythromycin in presence of compound,[2]; compound concentration 1.5 μM,64 µg/mL
same,MIC of Erythromycin in presence of compound,[2]; compound concentration 3.12 μM,64 µg/mL
same,MIC of Erythromycin in presence of compound,[2]; compound concentration 6.25 μM,64 µg/mL
same,MIC of Erythromycin in presence of compound,[2]; compound concentration 12.5 μM,32 µg/mL
same,MIC of Erythromycin in presence of compound,[2]; compound concentration 25 μM,16 µg/mL
same,MIC of Erythromycin in presence of compound,[2]; compound concentration 50 μM,16 µg/mL
same,MEC4 (minimum effective concentration of boeravinone B that brings about 4 fold reduction in the MIC of erythromycin),[2]; in combination with erythromycin,25 µM
same,MIC,"[3]; read-out: MIC of mupirocin in presence of compound, compound concentration 0.7 μM",256 µg/mL
same,MIC,"[3]; read-out: MIC of mupirocin in presence of compound, compound concentration 1.5 μM",256 µg/mL
same,MIC,"[3]; read-out: MIC of mupirocin in presence of compound, compound concentration 3.12 μM",256 µg/mL
same,MIC,"[3]; read-out: MIC of mupirocin in presence of compound, compound concentration 6.25 μM",256 µg/mL
same,MIC,"[3]; read-out: MIC of mupirocin in presence of compound, compound concentration 12.5 μM",128 µg/mL
same,MIC,"[3]; read-out: MIC of mupirocin in presence of compound, compound concentration 25 μM",64 µg/mL
same,MIC,"[3]; read-out: MIC of mupirocin in presence of compound, compound concentration 50 μM",64 µg/mL
same,reduction of MIC of mupirocin,[3]; [4],4 fold
same,enhancement in antibacterial activity of mupirocin,"[3]; combination with mupirocin, MDR S. aureus, concentration not given",4 folds
same,MEC4 (minimum effective concentration of boeravinone B that brings about 4 fold reduction in the MIC of Mupirocin),[3]; in combination with mupirocin,25 µM
same,decrease of the MIC of ciprofloxacin,[1]; at highest concentration (50 μM) of boeravinone B,8 folds
same,enhancement in antibacterial activity of ciprofloxacin,"[1]; combination with ciprofloxacin, MDR S. aureus, concentration not given",8 folds
same,MIC of ciprofloxacin in presence of compound,[1]; compound concentration 0.7 μM,8 µg/mL
same,MIC of ciprofloxacin in presence of compound,[1]; compound concentration 1.5 μM,8 µg/mL
same,MIC of ciprofloxacin in presence of compound,[1]; compound concentration 3.12 μM,4 µg/mL
same,MIC of ciprofloxacin in presence of compound,[1]; compound concentration 6.25 μM,4 µg/mL
same,MIC of ciprofloxacin in presence of compound,[1]; compound concentration 12.5 μM,2 µg/mL
same,MIC of ciprofloxacin in presence of compound,[1]; compound concentration 25 μM,1 µg/mL
same,MIC of ciprofloxacin in presence of compound,[1]; compound concentration 50 μM,1 µg/mL
same,MEC4 (minimum effective concentration of compound that brings about 4 fold reduction in the MIC of Ciprofloxacin),[1],12.5 µM
"C/C(=C\C(=O)OCCCCCCCCC(=O)O)C[C@@H]1OC[C@H](C[C@@H]2O[C@H]2[C@@H](C)[C@H](C)O)[C@@H](O)[C@H]1O [mupirocin, reference compound]",MIC,"[3]; 24 h, read-out: MIC of mupirocin Alone, mupirocin alone, S. aureus Mupr-1, 24 hrs",256 µg/mL
"O=C(/C=C/C=C/c1ccc2c(c1)OCO2)N1CCCCC1 [Piperine, reference compound]",MIC of ciprofloxacin in presence of compound,[1]; compound concentration 0.7 μM,8 µg/mL
same,MIC of ciprofloxacin in presence of compound,[1]; compound concentration 1.5 μM,8 µg/mL
same,MIC of ciprofloxacin in presence of compound,[1]; compound concentration 3.12 μM,8 µg/mL
same,MIC of ciprofloxacin in presence of compound,[1]; compound concentration 6.25 μM,8 µg/mL
same,MIC of ciprofloxacin in presence of compound,[1]; compound concentration 12.5 μM,8 µg/mL
same,MIC of ciprofloxacin in presence of compound,[1]; compound concentration 25 μM,4 µg/mL
same,MIC of ciprofloxacin in presence of compound,[1]; compound concentration 50 μM,4 µg/mL
same,MEC4 (minimum effective concentration of compound that brings about 4 fold reduction in the MIC of Ciprofloxacin),[1],>50 µM
